Results taken from patent US7635572B2, “Methods for conducting assays for enzyme activity on protein microarrays” (Life Technologies Corporation, priority 2004, dated 2009).
Where two headings read alike, the source gives them in different places.

Key:
[1] = target: T1, plurality of kinases (Table 5) (Homo sapiens, UniProt P51813); assay: Further analysis of a plurality of inhibitors and a plurality of kinases on microarray (Example IX, Table 5); format: biochemical; details: plate B12; inhibitor 100 uM;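 note: inhibition of each kinase by the inhibitors is given as a qualitative level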;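 for Inhibition level, DYRK2: level 0 none or unclear Level 1 marginal Level 2 substantial inhibition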;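 for Inhibition level, PTK2B: level 0 no or unclear inhibition to Level 2 substantial inhibition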;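 for Inhibition level, STK13: level 0 no or unclear inhibition to Level 2 substantial inhibition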
T1 sequence (P51813 1-675): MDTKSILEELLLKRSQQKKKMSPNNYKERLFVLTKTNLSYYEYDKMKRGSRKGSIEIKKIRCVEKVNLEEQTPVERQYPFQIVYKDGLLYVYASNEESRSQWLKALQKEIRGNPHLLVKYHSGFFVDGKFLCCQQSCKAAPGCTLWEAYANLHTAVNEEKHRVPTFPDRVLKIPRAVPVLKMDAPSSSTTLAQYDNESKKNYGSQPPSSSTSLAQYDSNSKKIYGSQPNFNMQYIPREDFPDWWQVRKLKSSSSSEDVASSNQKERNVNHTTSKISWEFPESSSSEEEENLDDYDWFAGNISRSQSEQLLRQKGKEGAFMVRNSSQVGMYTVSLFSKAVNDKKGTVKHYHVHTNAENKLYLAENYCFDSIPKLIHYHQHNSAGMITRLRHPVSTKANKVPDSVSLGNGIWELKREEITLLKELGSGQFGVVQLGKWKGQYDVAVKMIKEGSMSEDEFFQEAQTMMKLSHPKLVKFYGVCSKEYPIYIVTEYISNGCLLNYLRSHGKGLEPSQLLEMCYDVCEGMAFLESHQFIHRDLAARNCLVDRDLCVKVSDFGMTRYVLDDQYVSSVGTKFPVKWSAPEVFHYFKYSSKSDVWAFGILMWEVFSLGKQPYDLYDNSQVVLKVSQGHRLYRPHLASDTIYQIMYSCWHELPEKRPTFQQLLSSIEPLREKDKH

[2] = target: T2, plurality of kinases (Table 5) (Homo sapiens, UniProt P54762); assay: as above; format: biochemical
T2 sequence (P54762 18-984): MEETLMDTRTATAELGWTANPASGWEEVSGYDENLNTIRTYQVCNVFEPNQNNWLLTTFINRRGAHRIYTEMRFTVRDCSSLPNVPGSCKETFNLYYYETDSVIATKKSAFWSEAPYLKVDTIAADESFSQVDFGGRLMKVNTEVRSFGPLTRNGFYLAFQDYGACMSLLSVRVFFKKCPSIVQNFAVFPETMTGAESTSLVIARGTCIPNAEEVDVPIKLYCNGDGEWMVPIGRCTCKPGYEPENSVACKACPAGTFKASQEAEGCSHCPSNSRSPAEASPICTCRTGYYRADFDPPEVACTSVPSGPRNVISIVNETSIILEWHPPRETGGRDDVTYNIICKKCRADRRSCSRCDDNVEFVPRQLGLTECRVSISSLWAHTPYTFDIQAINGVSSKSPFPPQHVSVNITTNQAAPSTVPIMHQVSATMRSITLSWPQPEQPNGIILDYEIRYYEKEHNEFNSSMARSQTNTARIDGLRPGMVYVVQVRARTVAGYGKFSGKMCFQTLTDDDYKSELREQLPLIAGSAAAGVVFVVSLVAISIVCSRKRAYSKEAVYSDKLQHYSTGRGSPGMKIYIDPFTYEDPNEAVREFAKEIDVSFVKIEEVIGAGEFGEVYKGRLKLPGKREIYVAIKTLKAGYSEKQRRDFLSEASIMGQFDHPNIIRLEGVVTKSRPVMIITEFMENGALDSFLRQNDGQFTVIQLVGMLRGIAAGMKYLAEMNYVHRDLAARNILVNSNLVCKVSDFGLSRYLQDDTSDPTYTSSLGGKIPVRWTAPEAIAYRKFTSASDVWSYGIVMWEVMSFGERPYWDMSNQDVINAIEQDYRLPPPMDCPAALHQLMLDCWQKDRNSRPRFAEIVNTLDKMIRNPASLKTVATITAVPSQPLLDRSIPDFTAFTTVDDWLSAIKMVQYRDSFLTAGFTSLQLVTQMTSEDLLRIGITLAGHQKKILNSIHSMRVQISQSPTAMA

[3] = target: plurality of kinases (Table 5) (Homo sapiens, UniProt Q05655); assay: as above; format: biochemical; details: plate B2
plurality of kinases (Table 5) (Homo sapiens, UniProt Q05655), sequence (Q05655 whole entry): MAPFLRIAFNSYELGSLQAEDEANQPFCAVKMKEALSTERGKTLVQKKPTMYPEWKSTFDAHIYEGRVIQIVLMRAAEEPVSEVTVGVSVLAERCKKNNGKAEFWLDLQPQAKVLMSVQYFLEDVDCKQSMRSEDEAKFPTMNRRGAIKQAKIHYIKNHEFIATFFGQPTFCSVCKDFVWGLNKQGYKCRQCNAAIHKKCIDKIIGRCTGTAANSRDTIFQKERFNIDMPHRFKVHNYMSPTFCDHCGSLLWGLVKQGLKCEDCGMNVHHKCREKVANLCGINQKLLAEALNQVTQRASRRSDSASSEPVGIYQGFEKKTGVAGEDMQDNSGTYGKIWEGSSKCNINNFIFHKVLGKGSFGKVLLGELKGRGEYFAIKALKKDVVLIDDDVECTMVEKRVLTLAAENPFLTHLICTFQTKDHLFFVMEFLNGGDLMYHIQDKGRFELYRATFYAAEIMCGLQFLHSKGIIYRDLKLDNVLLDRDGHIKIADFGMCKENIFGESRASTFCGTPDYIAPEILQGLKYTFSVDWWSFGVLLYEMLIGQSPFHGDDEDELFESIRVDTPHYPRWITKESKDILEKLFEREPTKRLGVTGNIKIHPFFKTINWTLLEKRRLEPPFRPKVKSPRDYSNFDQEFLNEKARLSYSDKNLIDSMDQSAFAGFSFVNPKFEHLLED

[4] = target: plurality of kinases (Table 5) (Homo sapiens, UniProt Q14289); assay: as above; format: biochemical; details: plate G5
plurality of kinases (Table 5) (Homo sapiens, UniProt Q14289), sequence (Q14289 whole entry): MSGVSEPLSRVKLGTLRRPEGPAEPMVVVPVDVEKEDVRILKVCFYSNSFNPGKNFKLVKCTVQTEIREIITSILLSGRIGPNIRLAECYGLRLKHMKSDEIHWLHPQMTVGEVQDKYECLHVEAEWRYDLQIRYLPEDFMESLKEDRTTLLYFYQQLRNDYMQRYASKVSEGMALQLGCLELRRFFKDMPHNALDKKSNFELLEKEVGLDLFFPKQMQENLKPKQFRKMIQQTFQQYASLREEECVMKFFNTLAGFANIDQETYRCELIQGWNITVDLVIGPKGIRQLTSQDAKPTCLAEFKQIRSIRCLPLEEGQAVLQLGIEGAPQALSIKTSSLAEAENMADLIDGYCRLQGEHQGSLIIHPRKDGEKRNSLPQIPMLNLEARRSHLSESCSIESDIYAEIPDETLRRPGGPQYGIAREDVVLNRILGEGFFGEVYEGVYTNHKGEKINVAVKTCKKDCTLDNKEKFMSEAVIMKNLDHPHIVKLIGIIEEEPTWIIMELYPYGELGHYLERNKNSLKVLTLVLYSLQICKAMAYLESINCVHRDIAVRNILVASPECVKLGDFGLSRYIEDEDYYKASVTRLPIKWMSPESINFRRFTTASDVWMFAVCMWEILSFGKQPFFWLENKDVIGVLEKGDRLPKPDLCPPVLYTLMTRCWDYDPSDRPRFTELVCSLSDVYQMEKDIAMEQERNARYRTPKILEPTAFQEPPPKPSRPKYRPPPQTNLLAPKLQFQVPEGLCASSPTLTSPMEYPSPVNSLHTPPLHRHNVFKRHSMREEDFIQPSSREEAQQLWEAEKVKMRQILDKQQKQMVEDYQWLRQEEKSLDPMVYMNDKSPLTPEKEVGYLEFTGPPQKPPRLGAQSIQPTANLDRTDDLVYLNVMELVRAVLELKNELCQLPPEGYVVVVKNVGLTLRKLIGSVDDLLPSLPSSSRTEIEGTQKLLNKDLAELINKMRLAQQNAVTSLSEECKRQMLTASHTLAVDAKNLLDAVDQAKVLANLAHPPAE

[5] = target: T3, plurality of kinases (Table 5) (Homo sapiens, UniProt Q92630); assay: as above; format: biochemical; details: plate D11
T3 sequence (Q92630 1-601): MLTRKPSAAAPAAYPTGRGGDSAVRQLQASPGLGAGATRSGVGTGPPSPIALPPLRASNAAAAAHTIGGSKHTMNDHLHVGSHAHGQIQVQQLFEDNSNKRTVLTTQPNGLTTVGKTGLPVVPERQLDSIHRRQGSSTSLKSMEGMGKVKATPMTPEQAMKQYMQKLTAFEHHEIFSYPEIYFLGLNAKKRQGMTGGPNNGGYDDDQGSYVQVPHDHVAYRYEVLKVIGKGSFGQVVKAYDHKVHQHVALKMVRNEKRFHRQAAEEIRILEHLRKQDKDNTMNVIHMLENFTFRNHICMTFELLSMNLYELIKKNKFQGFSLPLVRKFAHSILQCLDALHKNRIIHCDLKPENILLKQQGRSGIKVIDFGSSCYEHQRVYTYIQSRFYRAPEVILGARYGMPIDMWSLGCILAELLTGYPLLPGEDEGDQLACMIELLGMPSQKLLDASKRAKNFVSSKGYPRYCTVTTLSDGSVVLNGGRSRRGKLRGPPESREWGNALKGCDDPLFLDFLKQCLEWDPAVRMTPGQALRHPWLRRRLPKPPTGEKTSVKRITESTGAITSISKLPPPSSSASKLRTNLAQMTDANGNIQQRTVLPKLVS

[6] = target: T4, plurality of kinases (Table 5) (Homo sapiens, UniProt Q9UQB9); assay: as above; format: biochemical; details: plate G11; inhibitor 100 uM
T4 sequence (Q9UQB9 1-309): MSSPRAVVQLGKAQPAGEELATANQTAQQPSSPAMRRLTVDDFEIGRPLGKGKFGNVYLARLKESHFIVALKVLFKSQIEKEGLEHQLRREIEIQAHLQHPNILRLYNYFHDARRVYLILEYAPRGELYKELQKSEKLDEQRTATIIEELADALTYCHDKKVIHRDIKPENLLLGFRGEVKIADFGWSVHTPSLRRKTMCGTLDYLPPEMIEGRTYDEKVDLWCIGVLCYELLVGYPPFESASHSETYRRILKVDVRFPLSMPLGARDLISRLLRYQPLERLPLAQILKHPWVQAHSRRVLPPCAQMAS

[7] = test system: 39 kinases (Table 4); details: known general specificities of the inhibitors, Table 3; cited from earlier work

Inhibition level, EPHB1 ([2]; plate B8, Genistein, conc. not given)	Inhibition level, PRKCD ([3]; Genistein, conc. not given)	Inhibition level, DYRK2 ([5]; Genistein, conc. not given)	Inhibition level, EPHB1 ([2]; plate B8, Ro-31-8220, conc. not given)	Inhibition level, PRKCD ([3]; Ro-31-8220, conc. not given)	Inhibition level, PTK2B ([4]; Ro-31-8220 90 uM)	Inhibition level, DYRK2 ([5]; Ro-31-8220, conc. not given)	Structure (SMILES)	Inhibition level, BMX [1]	Inhibition level, EPHB1 ([2]; plate B8, inhibitor 100 uM)	Inhibition level, PRKCD ([3]; inhibitor 100 uM)	Inhibition level, PTK2B ([4]; inhibitor 100 uM)	Inhibition level, DYRK2 ([5]; inhibitor 100 uM)	Inhibition level, STK13 [6]	General Specificity (known) [7]	Inhibition level, EPHB1 [2]	Inhibition level, PTK2B ([4]; Staurosporine 21.5 uM)
							N#C/C(=C/c1ccc(O)c(O)c1)C(=O)NCc1ccccc1 [AG 490]	0	0	0	2	2	2	tyrosine		
							COc1cc2ncnc(Nc3cccc(Cl)c3)c2cc1OC [AG 1478]	1	2	0	2	2	1			
0	0	1					O=c1c(-c2ccc(O)cc2)coc2cc(O)cc(O)c12 [Genistein]	0	1	0	2	2	2	tyrosine		
							O=S(=O)(NCCNC/C=C/c1ccc(Br)cc1)c1cccc2cnccc12 [H-89]	1	1	1	1	2	1	serine/threonine		
							CC(C)(C)n1nc(-c2ccc(Cl)cc2)c2c(N)ncnc21 [PP2]	2	2	0	2	2	2	tyrosine		
							O=c1c(O)c(-c2ccc(O)c(O)c2)oc2cc(O)cc(O)c12 [Quercetin]	0	0	0	1	2	2			
			2	2	0	0	Cn1cc(C2=C(c3cn(CCCSC(=N)N)c4ccccc34)C(=O)NC2=O)c2ccccc21 [Ro-31-8220]	2	0	0	2	2	2	serine/threonine		
							CC(=O)c1c(O)c(C)c(O)c(Cc2c(O)c3c(c(C(=O)/C=C/c4ccccc4)c2O)OC(C)(C)C=C3)c1O [Rottlerin (Mallotoxin)]	1	1	0	2	2	1			
							CN[C@@H]1C[C@H]2O[C@@](C)([C@@H]1OC)n1c3ccccc3c3c4c(c5c6ccccc6n2c5c31)C(=O)NC4 [Staurosporine]							broad	2	0
